ChEMBL document CHEMBL3244272, “Folate antagonists. 15. 2,3-Diamino-6-(2-naphthylsulfonyl)quinazoline and related 2,4-diamino-6-[(phenyl and naphthyl)sulfinyl and sulfonyl]quinazolines, a potent new class of antimetabolites with phenomenal antimalarial activity” (J Med Chem, 1979)
In brackets after ≈: the same amount, converted by molar mass.

Columns and labels:
Format in all cases: functional
[1] = tested on: Enterococcus faecalis; experiment: Antibacterial activity against Streptococcus faecalis MGH-2 assessed as growth inhibition
[2] = tested on: Staphylococcus aureus; experiment: Antibacterial activity against Staphylococcus aureus UC-76 assessed as growth inhibition
[3] = tested on: Staphylococcus aureus; experiment: Antibacterial activity against Staphylococcus aureus S18713 assessed as growth inhibition
[4] = tested on: Pseudomonas aeruginosa; experiment: Antibacterial activity against Pseudomonas aeruginosa 28 assessed as growth inhibition
[5] = tested on: Escherichia coli; experiment: Antibacterial activity against Escherichia coli Vogel assessed as growth inhibition
[6] = tested on: Shigella sonnei; experiment: Antibacterial activity against Shigella sonnei C-10 assessed as growth inhibition
[7] = tested on: Mycobacterium tuberculosis; experiment: Antibacterial activity against Mycobacterium tuberculosis H37Rv assessed as growth inhibition
[8] = tested on: Plasmodium berghei; experiment: Antimalarial activity against trophozoite-induced Plasmodium berghei infected in sc dosed mouse assessed as minimum curative dose
[9] = tested on: Plasmodium berghei; experiment: Antimalarial activity against trophozoite-induced Plasmodium berghei infected in mouse assessed as change in mean survival time at 320 mg/kg, sc single dose after 72 hrs of infection; conditions: route subcutaneous
[10] = tested on: Plasmodium berghei; experiment: Antimalarial activity against trophozoite-induced Plasmodium berghei infected in mouse assessed as change in mean survival time at 160 mg/kg, sc single dose after 72 hrs of infection; conditions: route subcutaneous
[11] = tested on: Plasmodium berghei; experiment: Antimalarial activity against trophozoite-induced Plasmodium berghei infected in mouse assessed as change in mean survival time at 80 mg/kg, sc single dose after 72 hrs of infection; conditions: route subcutaneous
[12] = tested on: Plasmodium berghei; experiment: Antimalarial activity against trophozoite-induced Plasmodium berghei infected in mouse assessed as change in mean survival time at 40 mg/kg, sc single dose after 72 hrs of infection; conditions: route subcutaneous
[13] = tested on: Plasmodium berghei; experiment: Antimalarial activity against trophozoite-induced Plasmodium berghei infected in mouse assessed as change in mean survival time at 20 mg/kg, sc single dose after 72 hrs of infection; conditions: route subcutaneous
[14] = tested on: Plasmodium berghei; experiment: Antimalarial activity against trophozoite-induced Plasmodium berghei infected in mouse assessed as change in mean survival time at 10 mg/kg, sc single dose after 72 hrs of infection; conditions: route subcutaneous
[15] = tested on: Plasmodium falciparum; experiment: Antimalarial activity against chloroquine-sensitive, pyrimethamine-resistant Plasmodium falciparum Malayan Camp CH/Q infected in Aotus monkey assessed as dose required to >50% cures compound treated for 7 days
[16] = tested on: Plasmodium falciparum; experiment: Antimalarial activity against chloroquine-resistant, pyrimethamine-sensitive Plasmodium falciparum Vietnam Oak Knoll in Aotus monkey assessed as dose required to >50% cures compound treated for 7 days
[17] = tested on: Plasmodium berghei; experiment: Antimalarial activity against trophozoite-induced Plasmodium berghei infected in mouse assessed as change in mean survival time at 5 mg/kg, sc single dose after 72 hrs of infection; conditions: route subcutaneous
[18] = tested on: Plasmodium berghei; experiment: Antimalarial activity against trophozoite-induced Plasmodium berghei infected in mouse assessed as change in mean survival time at 2.5 mg/kg, sc single dose after 72 hrs of infection; conditions: route subcutaneous
[19] = tested on: Plasmodium berghei; experiment: Antimalarial activity against trophozoite-induced Plasmodium berghei infected in mouse assessed as change in mean survival time at 1.25 mg/kg, sc single dose after 72 hrs of infection; conditions: route subcutaneous

## Nc1nc(N)c2cc(S(=O)(=O)c3cccc4ccccc34)ccc2n1
[1]
  MIC: > 25 µg/mL
[2]
  MIC: > 25 µg/mL
[3]
  MIC: > 25 µg/mL
[4]
  MIC: > 25 µg/mL
[5]
  MIC: > 25 µg/mL
[6]
  MIC: > 25 µg/mL
[7]
  MIC: > 25 µg/mL
[8]
  MCD: 80 mg/kg
[9]
  MST: 14.4 days
[10]
  MST: 14.3 days
[11]
  MST: 5.5 days
[12]
  MST: 3.5 days
[13]
  MST: 2.9 days
[14]
  MST: 0.7 days

## COc1cc(Cc2cnc(N)nc2N)cc(OC)c1OC [TRIMETHOPRIM]
[1]
  MIC: < 0.25 µg/mL
[2]
  MIC: < 0.25 µg/mL
[3]
  MIC: < 0.25 µg/mL
[4]
  MIC: > 25 µg/mL
[5]
  MIC: < 0.25 µg/mL
[6]
  MIC: < 0.25 µg/mL
[7]
  MIC: > 25 µg/mL

## Nc1nc(N)c2c(Cl)c(S(=O)(=O)c3cccc(C(F)(F)F)c3)ccc2n1
[1]
  MIC: < 0.25 µg/mL
[2]
  MIC: > 25 µg/mL
[3]
  MIC: > 25 µg/mL
[4]
  MIC: > 25 µg/mL
[5]
  MIC: > 25 µg/mL
[6]
  MIC: > 25 µg/mL
[7]
  MIC: > 25 µg/mL
[8]
  MCD: 40 mg/kg
[9]
  MST: 4.7 days
[10]
  MST: 3.7 days
[11]
  MST: 1.1 days
[12]
  MST: 0.7 days
[13]
  MST: 0.7 days
[14]
  MST: 0.5 days

## Nc1nc(N)c2cc([S+]([O-])c3cccc4ccccc34)ccc2n1 (centres undefined)
[1]
  MIC: > 25 µg/mL
[2]
  MIC: > 25 µg/mL
[3]
  MIC: > 25 µg/mL
[4]
  MIC: > 25 µg/mL
[5]
  MIC: > 25 µg/mL
[6]
  MIC: > 25 µg/mL
[8]
  MCD: 80 mg/kg
[9]
  MST: 16.4 days
[10]
  MST: 15.2 days
[11]
  MST: 13.7 days
[12]
  MST: 7.9 days
[13]
  MST: 1.9 days
[14]
  MST: 1.1 days

## Nc1nc(N)c2c(Cl)c(S(=O)(=O)c3ccc4ccccc4c3)ccc2n1
[1]
  MIC: < 0.25 µg/mL
[2]
  MIC: > 25 µg/mL
[3]
  MIC: > 25 µg/mL
[4]
  MIC: > 25 µg/mL
[5]
  MIC: > 25 µg/mL
[6]
  MIC: > 25 µg/mL
[7]
  MIC: > 25 µg/mL
[8]
  MCD: 5 mg/kg
[9]
  MST: 13.3 days
[10]
  MST: 11.5 days
[11]
  MST: 7.1 days
[12]
  MST: 4.7 days
[13]
  MST: 0.7 days

## Nc1nc(N)c2cc(Sc3cccc(C(F)(F)F)c3)ccc2n1 [WR-159412]
[15]
  Activity: 0.39 mg/kg
[16]
  Activity: 0.098 mg/kg

## Nc1nc(N)c2c(Cl)c([S+]([O-])c3ccc4ccccc4c3)ccc2n1 (centres undefined)
[1]
  MIC: < 0.25 µg/mL
[2]
  MIC: > 25 µg/mL
[3]
  MIC: > 25 µg/mL
[4]
  MIC: > 25 µg/mL
[5]
  MIC: > 25 µg/mL
[6]
  MIC: > 25 µg/mL
[7]
  MIC: > 25 µg/mL
[8]
  MCD: 5 mg/kg
[12]
  MST: 23.9 days
[13]
  MST: 9.3 days

## Nc1nc(N)c2c(Cl)c(S(=O)(=O)c3ccccc3)ccc2n1
[1]
  MIC: < 0.25 µg/mL
[2]
  MIC: 2 µg/mL (≈ 5.97 µM)
[3]
  MIC: 2 µg/mL (≈ 5.97 µM)
[4]
  MIC: > 25 µg/mL
[5]
  MIC: 2 µg/mL (≈ 5.97 µM)
[6]
  MIC: 2 µg/mL (≈ 5.97 µM)
[7]
  MIC: > 25 µg/mL
[8]
  MCD: 640 mg/kg
[12]
  MST: 22.4 days
[13]
  MST: 11.9 days

## Nc1nc(N)c2cc([S+]([O-])c3cccc(-c4ccccc4)c3)ccc2n1 (centres undefined)
[1]
  MIC: < 0.25 µg/mL
[2]
  MIC: < 0.25 µg/mL
[3]
  MIC: < 0.25 µg/mL
[4]
  MIC: > 25 µg/mL
[5]
  MIC: > 25 µg/mL
[6]
  MIC: > 25 µg/mL
[8]
  MCD: 40 mg/kg
[11]
  MST: 22.9 days
[12]
  MST: 18.9 days
[13]
  MST: 11.1 days
[14]
  MST: 6.7 days
[17]
  MST: 4.1 days
[18]
  MST: 1.1 days
[19]
  MST: 0.5 days

## Nc1nc(N)c2c(Cl)c([S+]([O-])c3ccccc3Cl)ccc2n1 (centres undefined)
[1]
  MIC: < 0.25 µg/mL
[2]
  MIC: 2 µg/mL (≈ 5.66 µM)
[3]
  MIC: > 25 µg/mL
[4]
  MIC: > 25 µg/mL
[5]
  MIC: > 25 µg/mL
[6]
  MIC: > 25 µg/mL
[7]
  MIC: > 25 µg/mL
[8]
  MCD: 40 mg/kg
[13]
  MST: 8.6 days

## Cc1cc(S(=O)(=O)c2ccc3nc(N)nc(N)c3c2)ccc1Br
[8]
  MCD: 80 mg/kg
[9]
  MST: 18.9 days
[10]
  MST: 17.4 days
[11]
  MST: 10.5 days
[12]
  MST: 5.9 days
[13]
  MST: 1.5 days
[14]
  MST: 0.5 days

## Nc1nc(N)c2c(Cl)c([S+]([O-])c3ccc(F)cc3)ccc2n1 (centres undefined)
[1]
  MIC: < 0.25 µg/mL
[2]
  MIC: < 0.25 µg/mL
[3]
  MIC: 1 µg/mL (≈ 2.97 µM)
[4]
  MIC: > 25 µg/mL
[5]
  MIC: < 0.25 µg/mL
[6]
  MIC: < 0.25 µg/mL
[7]
  MIC: 2.5 µg/mL (≈ 7.42 µM)
[8]
  MCD: 40 mg/kg
[11]
  MST: 27.9 days
[12]
  MST: 20.9 days
[13]
  MST: 4.1 days

## Nc1nc(N)c2c(Cl)c([S+]([O-])c3cccc(C(F)(F)F)c3)ccc2n1 (centres undefined)
[8]
  MCD: 40 mg/kg
[9]
  MST: 1.5 days
[11]
  MST: 1.1 days
[13]
  MST: 0.5 days

## Nc1nc(N)c2c(Cl)c([S+]([O-])c3ccccc3)ccc2n1 (centres undefined)
[8]
  MCD: 640 mg/kg
[11]
  MST: 17.9 days
[12]
  MST: 12.9 days
[13]
  MST: 8.5 days

## Nc1nc(N)c2cc(S(=O)(=O)c3ccccc3)ccc2n1
[8]
  MCD: 160 mg/kg
[11]
  MST: 12.6 days
[12]
  MST: 12.1 days
[13]
  MST: 7.7 days
[14]
  MST: 5.1 days
[17]
  MST: 0.3 days
[18]
  MST: 0.3 days

## Nc1nc(N)c2c(Cl)c(S(=O)(=O)c3ccc(F)cc3)ccc2n1
[1]
  MIC: < 0.25 µg/mL
[2]
  MIC: 2 µg/mL (≈ 5.67 µM)
[3]
  MIC: > 25 µg/mL
[4]
  MIC: > 25 µg/mL
[5]
  MIC: 10 µg/mL (≈ 28.3 µM)
[6]
  MIC: > 25 µg/mL
[7]
  MIC: > 25 µg/mL
[8]
  MCD: 40 mg/kg
[11]
  MST: 26.9 days
[12]
  MST: 13.4 days
[13]
  MST: 9.7 days
[14]
  MST: 9.3 days
[17]
  MST: 4.1 days
[18]
  MST: 0.5 days
[19]
  MST: 0.5 days

## Nc1nc(N)c2cc([S+]([O-])c3ccc(Br)cc3)ccc2n1 (centres undefined)
[1]
  MIC: < 0.25 µg/mL
[2]
  MIC: < 0.25 µg/mL
[3]
  MIC: < 0.25 µg/mL
[4]
  MIC: > 25 µg/mL
[5]
  MIC: 2.5 µg/mL (≈ 6.88 µM)
[6]
  MIC: > 25 µg/mL
[8]
  MCD: 10 mg/kg
[12]
  MST: 20.9 days
[13]
  MST: 13.6 days
[14]
  MST: 10.1 days
[17]
  MST: 6.7 days
[18]
  MST: 3.3 days

## Nc1nc(N)c2cc([S+]([O-])c3ccc(Cl)c(Cl)c3)ccc2n1 (centres undefined)
[1]
  MIC: < 0.25 µg/mL
[2]
  MIC: > 25 µg/mL
[3]
  MIC: > 25 µg/mL
[4]
  MIC: > 25 µg/mL
[5]
  MIC: > 25 µg/mL
[6]
  MIC: > 25 µg/mL
[8]
  MCD: 10 mg/kg
[12]
  MST: 21.9 days
[13]
  MST: 15.9 days
[14]
  MST: 8.7 days
[17]
  MST: 7.9 days
[18]
  MST: 4.1 days
[19]
  MST: 1.1 days
